This is an account of results in publication PMC12592420, “A mismatch in enzyme-redox partnerships underlies divergent cytochrome P450 activities between human hepatocytes and microsomes” (Communications Biology, 2025).

For one data set, the system named is human hepatocytes (HH). Put plainly: in vitro. Particulars: for HH_CLint: single determination; for HH_CLint / HH_scaled_CLint,u: Fig. 4a. As to the method:
(§1) Cryopreserved HH prepared from a mixed-gender pool of twenty donors (product X008000, lot EEO, BIOIVT), ten-donors (product S01205, lot MTJ, BIOIVT), ten donors (product S01205 lot LYB, BIOIVT) were utilised in the experiments. Cryopreserved HH were rapidly thawed in a water bath set at 37 °C and added to Leibovitz media that had been pre-warmed in the water bath. The suspension of cells was mixed gently and centrifuged at 40 × g for 4 min at room temperature. Excess media was removed, and the cells were re-suspended in 5 mL of fresh Leibovitz media. The cells were counted using an automated cell counter (Cellometer).

For a further data set, the system named is Caco-2 cells. Put plainly: Intrinsic permeability in Caco-2 cells with efflux inhibited. To be noted: intrinsic (passive) permeability, at least one determination. (In general: Caco-2 cells form a polarised layer with tight junctions and transporters.)
The nature of data set [1]: CLint in NADPH-supplemented human liver microsomes. Particulars: for microsomal CLint at 1 µM / CLint scaled at 1 µM: human; for HLM/HH (ratio of scaled CLint,u): NADPH-HLM average over HH average. As to the method: (§2) Calculation and scaling of CLint,u was done using the equation below and 45 mg of microsomal protein per gram of liver. HLMCLint,u=ln2/x1/t1/2(min)xmLincubation/mgmicrosomalproteinx45mgmicrosomalprotein/gliverx21gliver/kg/Fuinc
(In general: Liver microsomes are a subcellular fraction often used to study metabolism.)

Data set [2] can be described thus: LogD pH 7.4, octanol/phosphate buffer. To be noted: for LogD pH 7.4: at least one determination.
The next data set concerns rat hepatocytes. The experiment in a line: Free fraction in rat hepatocytes as surrogate for HH, equilibrium dialysis. It is filed as in vitro ADME. To be noted: fraction unbound, measured or estimated by in silico models of Fuinc.
Data set [3] in a line: Free fraction in HLM incubation, equilibrium dialysis. Particulars: fraction unbound, measured or estimated by in silico models of Fuinc. It is filed as in vitro ADME, human.
A short description of data set [4]: in vitro. Particulars: human, hepatocytes; for hepatocyte CLint: both. On the procedure: as §1
A short description of data set [5]: CLint in NADH-supplemented human liver microsomes. Particulars: for microsomal CLint at 1 µM / CLint scaled at 1 µM: human. As to the method:
as §2

Data set [6] is described as follows: in vitro. Particulars: human, Caco-2.
A further data set relates to POR. To be noted: POR for cofactor; cited from earlier work.
For the next data set, the system named is Cytb5R. To be noted: Cytb5R for cofactor; cited from earlier work.
Data set [7] is described as follows: Intrinsic permeability in Caco-2 cells with efflux inhibited. To be noted: human, Caco-2.
Another data set concerns the target T1, CYP1A2-Cytb5R (Homo sapiens, UniProt P05177).
T1 construct: purchased BioIVT (custom synthesis) CE00001 (CYP1A2), batch CPD034-1A2-30; host or cells: bactosomes
T1 sequence (P05177 1-516): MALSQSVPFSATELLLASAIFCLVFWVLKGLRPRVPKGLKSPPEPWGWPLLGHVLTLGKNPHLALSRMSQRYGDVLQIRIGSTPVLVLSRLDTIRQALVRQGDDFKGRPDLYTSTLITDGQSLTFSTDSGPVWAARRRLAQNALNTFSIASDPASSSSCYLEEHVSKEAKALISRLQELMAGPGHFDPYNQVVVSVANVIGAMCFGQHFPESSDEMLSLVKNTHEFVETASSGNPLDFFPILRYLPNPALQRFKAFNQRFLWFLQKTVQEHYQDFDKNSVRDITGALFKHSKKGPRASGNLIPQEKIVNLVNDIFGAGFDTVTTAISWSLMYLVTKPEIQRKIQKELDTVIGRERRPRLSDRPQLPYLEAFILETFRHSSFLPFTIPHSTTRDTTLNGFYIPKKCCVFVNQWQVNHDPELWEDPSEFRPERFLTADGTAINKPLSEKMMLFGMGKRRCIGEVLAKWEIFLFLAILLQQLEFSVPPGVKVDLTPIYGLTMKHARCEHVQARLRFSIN
The experiment in a line: Turnover by non-canonical recombinant CYP1A2-Cytb5R. It is filed as in vitro ADME. To be noted: noncanonical CYP1A2-Cytb5R. The text has this: As commercial recombinant human CYPs co-express the individual CYP and reductase with an option to include cytochrome b5. A custom synthesis co-expressing CYP3A4 or CYP1A2 and Cytb5R plus cytochrome b5 was, therefore, ordered from BioIVT and the bactosomes were compared with canonical CYP-POR enzymes plus cytochrome b5.

The mark [8] stands for this setting: 1 µM, single determination, Fig. 4a,d.
Where [9] appears, read: Scaled HH CLint,u average, HH, average, Fig. 1.
Where [10] appears, read: Scaled HH CLint,u, HH, individual determinations 1-3, Fig. 1.
Where [11] appears, read: HH, individual determinations 1-3, Fig. 1.
Where [12] appears, read: NADPH-HLM, individual determinations 1-3, Fig. 1.
Where [13] appears, read: human liver microsomes + NADPH, pH 7.4, Scaled HLM CLint,u, NADPH-HLM, individual determinations 1-3, Fig. 1.
[14] abbreviates: human liver microsomes, pH 7.4, Scaled HLM CLint,u average, NADPH-HLM, average, Fig. 1.

“And” between values parts separate entries of the source, which are not always exact repeats. Identical values can stand only once.

`CCN(C(=O)c1cc(F)ccc1Oc1nncnc1N1CCC2(C1)CN([C@H](CCCN(C)CCOC)C(C)C)C2)C(C)C` [Bleximenib]: the HH_CLint in the data set with human hepatocytes (HH) (1 µM) stood at 1.166 uL/min/106 cells. In addition, in the data set with human hepatocytes (HH), the “HH_scaled_CLint,u” value was 3.701 mL/min/kg. Moreover, the “Caco-2 Papp” value with Caco-2 cells was 0.575 10-6 cm/s. For the same compound, the “HLM_NADPH CLint” value in data set [1] (setting [8]) was 34.3 µL/min/mg. Besides, the “NADPH_HLM_scaled_CLint,u” value in data set [1] (Fig. 4a,d) came to 44.9563 mL/min/kg. The “LogD pH 7.4” value in [2] was 0.74. Besides, in the data set with rat hepatocytes, the fu_ratHH was 0.794. The fu_HLM in [3] is 0.721.
As usually defined, the hepatocyte CLint is the rate of metabolic loss divided by the concentration. Lower therefore signals slow turnover. As a reminder, the CLint scaled is the capacity of the preparation to metabolise the compound, expressed as a volume cleared per time. A word on the microsomal CLint: it is a measure of how fast metabolising enzymes remove a compound, apart from limits set by blood flow. What is called Papp is the rate of passage across a membrane or cell layer, normalised by area and donor concentration. For `O=C1Nc2ccc(Cl)cc2C(c2ccccc2Cl)=NC1O` (centres unmarked) [Lorazepam], the intrinsic metabolic clearance (hepatocyte CLint) in “in vitro [4]” (HH_CLint, 1 µM, single determination, Fig. 4a) was found to be 2.77 µL/min/1e6 cells. Besides, the CLint scaled in “in vitro [4]” (HH_scaled_CLint,u, Fig. 4a) was 9.63 mL/min/kg. The microsomal CLint at 1 µM came out at 3 µL/min/mg in data set [5] (microsomes, pH 7.4, HLM_NADH CLint, 1 µM, single determination, Fig. 4a,d) and 4.99 µL/min/mg in [1] (microsomes, pH 7.4, HLM_NADPH CLint, 1 µM, single determination, Fig. 4a,d). The intrinsic clearance (CLint scaled) at 1 µM is 3.92 mL/min/kg in data set [5] (microsomes, pH 7.4, NADH_HLM_scaled_CLint,u, Fig. 4a,d) and 6.51 mL/min/kg in [1] (microsomes, pH 7.4, NADPH_HLM_scaled_CLint,u, Fig. 4a,d). Moreover, in the data set on rat hepatocytes, the fu_ratHH is listed as 0.724. In addition, the apparent permeability coefficient (Papp) in “in vitro [6]” is 67.2 ×10⁻⁶ cm/s. Also, the fu_HLM in data set [3] was 0.724.
By Km is commonly meant the concentration of substrate that gives half-maximal velocity. On to `NC(=O)C1=CN([C@@H]2O[C@H](COP(=O)(O)OP(=O)(O)OC[C@H]3O[C@@H](n4cnc5c(N)ncnc54)[C@H](O)[C@@H]3O)[C@@H](O)[C@H]2O)C=CC1` [NADH], for which the figures for the Michaelis constant (Km) with POR and in the data set with Cytb5R were 48000 µM and 6 µM, respectively.
Regarding `NC(=O)C1=CN([C@@H]2O[C@H](COP(=O)(O)OP(=O)(O)OC[C@H]3O[C@@H](n4cnc5c(N)ncnc54)[C@H](OP(=O)(O)O)[C@@H]3O)[C@@H](O)[C@H]2O)C=CC1` [NADPH], the figures for the Michaelis constant (Km) in the data set on POR and in the data set with Cytb5R were 2 to 15 µM and 1000 µM, respectively.
Usually logD stands for the decadic logarithm of the distribution of all forms, ionised or not, between an organic phase and buffer at a given pH. Low values mean lower lipophilicity, high ones higher lipophilicity. In turn, `CCOc1ccc(NC(C)=O)cc1` [Phenacetin] displayed a hepatocyte CLint in the data set “in vitro [4]” of 7.38 µL/min/1e6 cells. This compound also had a CLint scaled in the data set “in vitro [4]” (HH_scaled_CLint,u, Fig. 4a) of 19.5 mL/min/kg. Besides, the intrinsic clearance (microsomal CLint) at 1 µM in [5] (human liver microsomes + NADH, pH 7.4) worked out at 5.68 µL/min/mg; in data set [1] (human liver microsomes + NADPH, pH 7.4), 24.5 µL/min/mg. The CLint scaled at 1 µM in data set [5] (human liver microsomes, pH 7.4) turned out to be 5.66 mL/min/kg; in data set [1] (human liver microsomes, pH 7.4, NADPH_HLM_scaled_CLint,u, Fig. 4a,d), 24.4 mL/min/kg. The compound also displayed a Papp at 2 h, 10 µM in [7] of 76.1 ×10⁻⁶ cm/s. Further, the “turnover (metabolite formation or disappearance of parent)” value on CYP1A2-Cytb5R is on record as “no detectable turnover”. The same compound showed a logD in [2] (octanol/phosphate buffer, pH 7.4) of 1.48. The fu_ratHH with rat hepatocytes is 0.955. Also, the fu_HLM in data set [3] was 0.948.
Take `C[C@]12CC[C@H]3[C@@H](CCC4=CC(=O)CC[C@@]43C)[C@@H]1CC[C@@H]2O` [Testosterone]: the CLint scaled in the data set “in vitro [4]” (setting [9]) was determined as 1320 mL/min/kg; in “in vitro [4]” (setting [10]) it was 1780 mL/min/kg. The “Scaled HH CLint,u” value in the data set with human hepatocytes (HH) (setting [11]) is 1005.17 mL/min/kg and 1161.02 mL/min/kg. The “Scaled HLM CLint,u” value in [1] (setting [12]) is 250.062 mL/min/kg and 237.027 mL/min/kg. Moreover, the CLint scaled at 1 µM was 246 mL/min/kg in data set [1] (microsomes, pH 7.4, Scaled HLM CLint,u average, NADPH-HLM, average, Fig. 1) and 251 mL/min/kg in data set [1] (microsomes, pH 7.4, Scaled HLM CLint,u, NADPH-HLM, individual determinations 1-3, Fig. 1).
For the compound `CCC1=C[C@@H]2CN(C1)Cc1c([nH]c3ccccc13)[C@@](C(=O)OC)(c1cc3c(cc1OC)N(C)[C@H]1[C@@](O)(C(=O)OC)[C@H](OC(C)=O)[C@]4(CC)C=CCN5CC[C@]31[C@@H]54)C2` [Vinorelbin], the intrinsic metabolic clearance (CLint scaled) at 1 µM turned out to be 38.9 mL/min/kg in “in vitro [4]” (Scaled HH CLint,u), 43.6 mL/min/kg in “in vitro [4]” (Scaled HH CLint,u average), 436 mL/min/kg in [1] (setting [13]) and 598 mL/min/kg in [1] (setting [14]). Also, the “Scaled HH CLint,u” value with human hepatocytes (HH) (human, hepatocytes, 1 µM) is 48.4191 mL/min/kg. Also, the “HLM/HH (ratio of scaled CLint,u)” value in data set [1] (Fig. 1) was 13.7107. The “Scaled HLM CLint,u” value in [1] (setting [12]) is 640.935 mL/min/kg and 717.808 mL/min/kg.
For the compound `C[C@]12CCC(=O)C=C1CC[C@@H]1[C@@H]2[C@@H](O)C[C@@]2(C)[C@H]1CC[C@]2(O)C(=O)CO` [hydrocortisone], the intrinsic clearance (CLint scaled) in “in vitro [4]” (setting [9]) was 19.3 mL/min/kg; in the data set “in vitro [4]” (setting [10]), 22.4 mL/min/kg. Further, the “Scaled HH CLint,u” value with human hepatocytes (HH) (setting [11]) is 16.444 mL/min/kg and 19.1349 mL/min/kg. Besides, the “HLM/HH (ratio of scaled CLint,u)” value in data set [1] (Fig. 1) amounted to 2.834. Further, the “Scaled HLM CLint,u” value in data set [1] (setting [12]) was 57.5167 mL/min/kg and 51.9108 mL/min/kg. Further, the intrinsic metabolic clearance (CLint scaled) at 1 µM worked out at 54.9 mL/min/kg in data set [1] (setting [13]) and 54.8 mL/min/kg in [1] (setting [14]).
AZ23 came in with an HH_CLint in the data set with human hepatocytes (HH) (1 µM) of 3.309 uL/min/106 cells. In addition, in the data set with human hepatocytes (HH), the “HH_scaled_CLint,u” value was 14.4518 mL/min/kg. Moreover, the “HLM_NADH CLint” value in [5] (setting [8]) came to 6.34 µL/min/mg. In addition, in [5] (Fig. 4a,d), the “NADH_HLM_scaled_CLint,u” value came to 10.2767 mL/min/kg. In addition, the “Caco-2 Papp” value in the data set with Caco-2 cells was 66.417 10-6 cm/s. Further, the “HLM_NADPH CLint” value in data set [1] (setting [8]) worked out at 56.607 µL/min/mg. In addition, the “NADPH_HLM_scaled_CLint,u” value in data set [1] (Fig. 4a,d) is listed as 91.7558 mL/min/kg. The “LogD pH 7.4” value in data set [2] stood at 3.08. In the data set on rat hepatocytes, the fu_ratHH is listed as 0.577. Further, in data set [3], the fu_HLM is given as 0.583.
